Measured values from patent US8802597B2, “Herbicidal pyrimidines” (E I du Pont de Nemours and Company, priority 2003, dated 2014).
Like-named read-outs stand apart in the source and are kept apart here.

Key:
Assay in all cases: Test C pre/postemergence
Format in all cases: in vivo
corn (Zea mays) = conditions: for Corn plant response rating (crop injury, 0 = no effect, 100 = complete kill) at 16 g/ha: 16 g ai/ha
Summary of the method: (§1)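 We sprayed seeded pots preemergence and 2–18 cm seedlings postemergence with test chemicals in a non-phytotoxic solvent mixture including surfactant. Greenhouse plants were visually compared with untreated controls at 12 to 14 days and scored 0 (no effect) to 100 (complete control).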

[1] = tested on: Surinam grass (Brachiaria decumbens); conditions: for pest or weed control at 16 g/ha: 16 g ai/ha
Summary of the method: as §1

[2] = tested on: goosegrass (Eleusine indica); conditions: for pest or weed control at 16 g/ha: 16 g ai/ha
Summary of the method: as §1

[3] = Zea mays, post-emergence, Postemergence, 31 g ai/ha, read-out: Plant response rating (scale of 0 to 100), Corn
[4] = Zea mays, post-emergence, Postemergence, 62 g ai/ha, scale 0 to 100 (0 no effect, 100 complete control), read-out: Corn plant response rating
[5] = Zea mays, post-emergence, Postemergence, 125 g ai/ha, scale 0 to 100 (0 no effect, 100 complete control), read-out: Corn plant response rating
[6] = Zea mays, pre-emergence, Preemergence, 31 g ai/ha, scale 0 to 100, 0 no effect, 100 complete control, read-out: Plant response rating, Corn
[7] = Zea mays, pre-emergence, Preemergence, 62 g ai/ha, scale 0 to 100, 0 no effect, 100 complete control, read-out: Plant response rating, Corn
[8] = Zea mays, pre-emergence, Preemergence, 125 g ai/ha, scale 0 to 100, read-out: Plant response rating, Corn
[9] = Urochloa decumbens, post-emergence, Postemergence, 125 g ai/ha, scale 0 to 100 (0 no effect, 100 complete control), read-out: Surinam Grass plant response rating
[10] = Urochloa decumbens, post-emergence, Postemergence, 31 g ai/ha, read-out: Plant response rating (scale of 0 to 100), Surinam Grass
[11] = Urochloa decumbens, post-emergence, Postemergence, 62 g ai/ha, scale 0 to 100 (0 no effect, 100 complete control), read-out: Surinam Grass plant response rating
[12] = Urochloa decumbens, pre-emergence, Preemergence, 31 g ai/ha, scale 0 to 100, 0 no effect, 100 complete control, read-out: Plant response rating, Surinam Grass
[13] = Urochloa decumbens, pre-emergence, Preemergence, 62 g ai/ha, scale 0 to 100, 0 no effect, 100 complete control, read-out: Plant response rating, Surinam Grass
[14] = Urochloa decumbens, pre-emergence, Preemergence, 125 g ai/ha, scale 0 to 100, read-out: Plant response rating, Surinam Grass
[15] = Eleusine indica, post-emergence, Postemergence, 31 g ai/ha, read-out: Plant response rating (scale of 0 to 100), Goosegrass
[16] = Eleusine indica, post-emergence, Postemergence, 62 g ai/ha, scale 0 to 100 (0 no effect, 100 complete control), read-out: Goosegrass plant response rating
[17] = Eleusine indica, post-emergence, Postemergence, 125 g ai/ha, scale 0 to 100 (0 no effect, 100 complete control), read-out: Goosegrass plant response rating
[18] = Eleusine indica, pre-emergence, Preemergence, 31 g ai/ha, scale 0 to 100, 0 no effect, 100 complete control, read-out: Plant response rating, Goosegrass
[19] = Eleusine indica, pre-emergence, Preemergence, 62 g ai/ha, scale 0 to 100, 0 no effect, 100 complete control, read-out: Plant response rating, Goosegrass
[20] = Eleusine indica, pre-emergence, Preemergence, 125 g ai/ha, scale 0 to 100, read-out: Plant response rating, Goosegrass
[21] = Zea mays, pre-emergence, Preemergence, 250 g ai/ha, scale 0 to 100
[22] = Urochloa decumbens, pre-emergence, Preemergence, 250 g ai/ha, scale 0 to 100, read-out: Plant response rating, Surinam Grass
[23] = Eleusine indica, pre-emergence, Preemergence, 250 g ai/ha, scale 0 to 100, read-out: Plant response rating, Goosegrass
[24] = Postemergence, 62 g ai/ha, scale 0 to 100 (0 no effect, 100 complete control)
[25] = Postemergence, 125 g ai/ha, scale 0 to 100 (0 no effect, 100 complete control)
[26] = Postemergence, 250 g ai/ha, scale 0 to 100
[27] = Postemergence, 500 g ai/ha, scale 0 to 100
[28] = Preemergence, 62 g ai/ha, scale 0 to 100, 0 no effect, 100 complete control
[29] = Preemergence, 125 g ai/ha, scale 0 to 100
[30] = Preemergence, 250 g ai/ha, scale 0 to 100
[31] = Preemergence, 500 g ai/ha, scale 0 to 100
[32] = Preemergence, 31 g ai/ha, scale 0 to 100, 0 no effect, 100 complete control

Row | Structure (SMILES) | Corn plant response rating (crop injury, 0 = no effect, 100 = complete kill) at 62 g/ha (corn (Zea mays); [7]) [%] | Corn plant response rating (crop injury, 0 = no effect, 100 = complete kill) at 125 g/ha (corn (Zea mays); [8]) [%] | pest or weed control at 62 g/ha [1, 13] [%] | pest or weed control at 125 g/ha [1, 14] [%] | pest or weed control at 62 g/ha [2, 19] [%] | pest or weed control at 125 g/ha [2, 20] [%] | Plant response rating, Corn (corn (Zea mays); [28]) | Plant response rating, Corn (corn (Zea mays); [29]) | Plant response rating, Corn (corn (Zea mays); [30]) | Plant response rating, Corn (corn (Zea mays); [31]) | Plant response rating, Surinam Grass [1, 28] | Plant response rating, Surinam Grass [1, 29] | Plant response rating, Surinam Grass [1, 30] | Plant response rating, Surinam Grass [1, 31] | Plant response rating, Goosegrass [2, 28] | Plant response rating, Goosegrass [2, 29] | Plant response rating, Goosegrass [2, 30] | Plant response rating, Goosegrass [2, 31] | other results
1 | COC(=O)c1nc(C2CC2)nc(N)c1F [Compound 25] | 0 | 0 | 0 | 40 | 0 | 0 | – | – | – | – | – | – | – | – | – | – | – | – | Corn plant response rating (crop injury, 0 = no effect, 100 = complete kill) at 16 g/ha (corn (Zea mays); Zea mays, post-emergence, Postemergence, read-out: Plant response rating (scale of 0 to 100), Corn): 0%; Corn plant response rating (crop injury, 0 = no effect, 100 = complete kill) at 31 g/ha (corn (Zea mays); [3]): 0%; Corn plant response rating (crop injury, 0 = no effect, 100 = complete kill) at 62 g/ha (corn (Zea mays); [4]): 0%; Corn plant response rating (crop injury, 0 = no effect, 100 = complete kill) at 125 g/ha (corn (Zea mays); [5]): 0%; Corn plant response rating (crop injury, 0 = no effect, 100 = complete kill) at 16 g/ha (corn (Zea mays); Zea mays, pre-emergence, Preemergence, scale 0 to 100, 0 no effect, 100 complete control, read-out: Plant response rating, Corn): 0%; Corn plant response rating (crop injury, 0 = no effect, 100 = complete kill) at 31 g/ha (corn (Zea mays); [6]): 0%; pest or weed control at 125 g/ha [1, 9]: 5%; pest or weed control at 16 g/ha ([1]; Urochloa decumbens, post-emergence, Postemergence, read-out: Plant response rating (scale of 0 to 100), Surinam Grass): 0%; pest or weed control at 31 g/ha [1, 10]: 0%; pest or weed control at 62 g/ha [1, 11]: 0%; pest or weed control at 16 g/ha ([1]; Urochloa decumbens, pre-emergence, Preemergence, scale 0 to 100, 0 no effect, 100 complete control, read-out: Plant response rating, Surinam Grass): 0%; pest or weed control at 31 g/ha [1, 12]: 0%; pest or weed control at 16 g/ha ([2]; Eleusine indica, post-emergence, Postemergence, read-out: Plant response rating (scale of 0 to 100), Goosegrass): 0%; pest or weed control at 31 g/ha [2, 15]: 0%; pest or weed control at 62 g/ha [2, 16]: 0%; pest or weed control at 125 g/ha [2, 17]: 0%; pest or weed control at 16 g/ha ([2]; Eleusine indica, pre-emergence, Preemergence, scale 0 to 100, 0 no effect, 100 complete control, read-out: Plant response rating, Goosegrass): 0%; pest or weed control at 31 g/ha [2, 18]: 0%
2 | Nc1nc(C2CC2)nc(C=O)c1Br [Compound 26] | 0 | 0 | 0 | 0 | 0 | 0 | – | – | – | – | – | – | – | – | – | – | – | – | Corn plant response rating (crop injury, 0 = no effect, 100 = complete kill) at 250 g/ha (corn (Zea mays); [21]): 0%; Corn plant response rating (crop injury, 0 = no effect, 100 = complete kill) at 500 g/ha (corn (Zea mays); Zea mays, pre-emergence, Preemergence, 500 g ai/ha, scale 0 to 100): 20%; pest or weed control at 250 g/ha [1, 22]: 10%; pest or weed control at 500 g/ha ([1]; Urochloa decumbens, pre-emergence, Preemergence, 500 g ai/ha, scale 0 to 100, read-out: Plant response rating, Surinam Grass): 10%; pest or weed control at 250 g/ha [2, 23]: 0%; pest or weed control at 500 g/ha ([2]; Eleusine indica, pre-emergence, Preemergence, 500 g ai/ha, scale 0 to 100, read-out: Plant response rating, Goosegrass): 0%
3 | Nc1nc(C2CC2)nc(C=NO)c1Br [Compound 27] | – | – | – | – | – | – | 0 | 10 | 15 | 25 | 0 | 0 | 20 | 30 | 0 | 0 | 0 | 20 | Corn plant response rating (corn (Zea mays); [24]): 0; Corn plant response rating (corn (Zea mays); [25]): 0; Plant response rating, Corn (corn (Zea mays); [26]): 0; Plant response rating, Corn (corn (Zea mays); [27]): 0; Surinam Grass plant response rating [1, 24]: 0; Surinam Grass plant response rating [1, 25]: 0; Plant response rating, Surinam Grass [1, 26]: 0; Plant response rating, Surinam Grass [1, 27]: 0; Goosegrass plant response rating [2, 24]: 0; Goosegrass plant response rating [2, 25]: 0; Plant response rating, Goosegrass [2, 26]: 0; Plant response rating, Goosegrass [2, 27]: 0
4 | COC(=O)c1nc(C2CC2C)nc(N)c1Br (centres unmarked) [Compound 28] | – | – | – | – | – | – | 0 | 0 | 0 | 0 | 0 | 0 | 0 | 0 | 0 | 0 | 0 | 20 | Corn plant response rating (corn (Zea mays); [24]): 0; Corn plant response rating (corn (Zea mays); [25]): 0; Plant response rating, Corn (corn (Zea mays); [26]): 0; Plant response rating, Corn (corn (Zea mays); [27]): 0; Surinam Grass plant response rating [1, 24]: 0; Surinam Grass plant response rating [1, 25]: 0; Plant response rating, Surinam Grass [1, 26]: 0; Plant response rating, Surinam Grass [1, 27]: 0; Goosegrass plant response rating [2, 24]: 0; Goosegrass plant response rating [2, 25]: 0; Plant response rating, Goosegrass [2, 26]: 0; Plant response rating, Goosegrass [2, 27]: 15
5 | CCOC(=O)c1nc(C2CC2)nc(N)c1F [Compound 30] | 0 | 0 | 0 | 0 | 30 | 35 | – | – | – | – | – | – | – | – | – | – | – | – | Corn plant response rating (crop injury, 0 = no effect, 100 = complete kill) at 31 g/ha (corn (Zea mays); [3]): 0%; Corn plant response rating (crop injury, 0 = no effect, 100 = complete kill) at 62 g/ha (corn (Zea mays); [4]): 0%; Corn plant response rating (crop injury, 0 = no effect, 100 = complete kill) at 125 g/ha (corn (Zea mays); [5]): 0%; Corn plant response rating (crop injury, 0 = no effect, 100 = complete kill) at 250 g/ha (corn (Zea mays); Zea mays, post-emergence, Postemergence, 250 g ai/ha, scale 0 to 100): 50%; Corn plant response rating (crop injury, 0 = no effect, 100 = complete kill) at 31 g/ha (corn (Zea mays); [6]): 0%; Corn plant response rating (crop injury, 0 = no effect, 100 = complete kill) at 250 g/ha (corn (Zea mays); [21]): 0%; pest or weed control at 125 g/ha [1, 9]: 0%; pest or weed control at 31 g/ha [1, 10]: 0%; pest or weed control at 62 g/ha [1, 11]: 0%; pest or weed control at 250 g/ha ([1]; Urochloa decumbens, post-emergence, Postemergence, 250 g ai/ha, scale 0 to 100, read-out: Plant response rating, Surinam Grass): 35%; pest or weed control at 31 g/ha [1, 12]: 0%; pest or weed control at 250 g/ha [1, 22]: 20%; pest or weed control at 31 g/ha [2, 15]: 0%; pest or weed control at 62 g/ha [2, 16]: 0%; pest or weed control at 125 g/ha [2, 17]: 0%; pest or weed control at 250 g/ha ([2]; Eleusine indica, post-emergence, Postemergence, 250 g ai/ha, scale 0 to 100, read-out: Plant response rating, Goosegrass): 0%; pest or weed control at 31 g/ha [2, 18]: 0%; pest or weed control at 250 g/ha [2, 23]: 50%
6 | CCOC(=O)C(Cl)c1nc(C2CC2)nc(N)c1Br (centres unmarked) [Compound 31] | – | – | – | – | – | – | 0 | 0 | 0 | – | 0 | 0 | 0 | – | 0 | 0 | 20 | – | Plant response rating, Corn (corn (Zea mays); [32]): 0; Plant response rating, Surinam Grass [1, 32]: 0; Plant response rating, Goosegrass [2, 32]: 0
7 | CCOC(=O)Cc1nc(C2CC2)nc(N=CN(C)C)c1Br [Compound 33] | – | – | – | – | – | – | 0 | 0 | 30 | 40 | 0 | 0 | 0 | 10 | 0 | 0 | 0 | 0 | –
8 | CCOC(=O)c1nc(C2CC2)nc(N=CN(C)C)c1Br [Compound 40] | – | – | – | – | – | – | 0 | 20 | 20 | 40 | – | 0 | 10 | 90 | 0 | 0 | 5 | 40 | –
